# Target: T1, human 20S proteasome (hs20S), chymotrypsin-like β5-subunits (Homo sapiens, UniProt P20618+P28074)
# T1 construct: purchased R&D
# Assay: In vitro 20S peptidase inhibition kinetics, chymotrypsin-like activity (Suc-LLVY-AMC)
# Format: biochemical
# Conditions: second-order rate constant, Suc-LLVY-AMC substrate, 37° C.
# Method: In vitro 20S peptidase inhibition assays were recorded in a 384-well plate at a SpectraMax M5 (Molecular devises) plate-reader. Therefore, 5 nM human 20S (R&D) was incubated in buffer R (50 mM HEPES-KOH, pH 7.5, 0.5 mM EDTA) with 100 μM of the fluorogenic peptide substrates Suc-LLVY-AMC or Boc-LRR-AMC. Reactions were started by adding various amounts of inhibitors (5 nM to 500 μM) to a final volume of 30 μL and peptide hydrolysis was continuously monitored for 90 min by changes in fluorescence (excitation 380 nm; emission 440 nm) at 37° C. The kobs values were determined by fitting the raw data to equation (1). The slopes of the plots of kobsversus I gave an apparent value of kobs/I, also referred to as kinact/Ki for an irreversible inhibitor, which was then corrected by equation (2) to compensate for the effect of substrate competition, where app is the apparent value at different inhibitor concentrations.
# Using purified human 20S proteasome (hs20S) and a fluorogenic substrate (Suc-LLVY-AMC), in vitro assays were performed to systematically assess proteasome inhibition by the syringolin analogues. The choice of substrate was based on the fact that it is preferentially acted upon by the chymotrypsin-like β5-subunits of the proteasome due to the aromatic tyrosine residue at the scissile bond (i.e., P1 position).
# From measurements of the rates of hydrolysis of the fluorogenic substrate by the proteasome in the presence of increasing concentrations of each inhibitor, second-order rate constants kin/Ki (M^−1 s^−1) were determined (Table 1), which reflect both the affinity of the non-covalent binding (Ki) and the rate of the chemical reaction with the enzyme (kin). All of the syringolin analogues were capable in inhibiting the chymotrypsin-like activity of hs20S. Without wishing to be limited by any theory, consistent with the design predictions, the most significant contributor to the apparent second-order rate constants of the compounds was their binding affinity (Ki) rather than the rates of inhibition.
# In vitro 20S peptidase inhibition assays were recorded in a 384-well plate at a SpectraMax M5 (Molecular Devices) plate-reader. Therefore, 5 nM human 20S (R&D) was incubated in buffer R (50 mM HEPEs-KOH, pH 7.5, 0.5 mM EDTA) with 100 μM of the fluorogenic peptide substrate Suc-LLVY-AMC. Reactions were started by adding various amounts of inhibitors 5 nM to 500 μM) to a final volume of 30 μL and peptide hydrolysis was continuously monitored for 90 minutes by changes in fluorescence (excitation 380 nm; emission 440 nm) at 37 degrees Celsius. The kobs values were determined by fitting the raw data to equation 1. The slopes of the plots of kobs versus I gave an apparent value of kob/I, also referred to as kinact/Ki for an irreversible inhibitor, which was then corrected by equation 2 to compensate for the effect of substrate competition, where app is the apparent value at different inhibitor concentrations.
row,SMILES,hs20S kin/Ki
1,"COC(=O)[C@@H](NC(=O)N[C@H](C(=O)N[C@H]1CCCCNC(=O)/C=C/[C@H](Cc2cccc(F)c2)NC1=O)C(C)C)C(C)C [Compound 6, (S)-methyl 2-(3-((S)-1-(((5S,8S,E)-5-(3-fluorobenzyl)-2,7-dioxo-1,6-diazacyclododec-3-en-8-yl)amino)-3-methyl-1-oxobutan-2-yl)ureido)-3-methylbutanoate]","2,471 M^−1s^−1"
2,"COC(=O)[C@@H](NC(=O)N[C@H](C(=O)N[C@H]1CCCCNC(=O)/C=C/[C@H](Cc2cc(F)cc(F)c2)NC1=O)C(C)C)C(C)C [Compound 7, (S)-methyl 2-(3-((S)-1-(((5S,8S,E)-5-(3,5-difluorobenzyl)-2,7-dioxo-1,6-diazacyclododec-3-en-8-yl)amino)-3-methyl-1-oxobutan-2-yl)ureido)-3-methylbutanoate]","1,579 M^−1s^−1"
3,"COC(=O)[C@@H](NC(=O)N[C@@H](Cc1ccccc1Cl)C(=O)N[C@H]1CCCCNC(=O)/C=C/[C@H](Cc2ccccc2F)NC1=O)C(C)C [Compound 17, (S)-methyl 2-(3-((S)-3-(2-chlorophenyl)-1-((5S,8S,E)-5-(2-fluorobenzyl)-2,7-dioxo-1,6-diazacyclododec-3-en-8-ylamino)-1-oxopropan-2-yl)ureido)-3-methylbutanoate]",7271 M⁻¹ s⁻¹
4,"COC(=O)[C@@H](NC(=O)N[C@@H](Cc1cccc(Cl)c1)C(=O)N[C@H]1CCCCNC(=O)/C=C/[C@H](Cc2ccccc2F)NC1=O)C(C)C [Compound 18, (S)-methyl 2-(3-((S)-3-(3-chlorophenyl)-1-((5S,8S,E)-5-(2-fluorobenzyl)-2,7-dioxo-1,6-diazacyclododec-3-en-8-ylamino)-1-oxopropan-2-yl)ureido)-3-methylbutanoate]",4656 M⁻¹ s⁻¹
5,"COC(=O)[C@@H](NC(=O)N[C@@H](Cc1ccccc1)C(=O)N[C@H]1CCCCNC(=O)/C=C/[C@H](Cc2ccccc2F)NC1=O)C(C)C [Compound 19, (S)-methyl 2-(3-((S)-1-((5S,8S,E)-5-(2-fluorobenzyl)-2,7-dioxo-1,6-diazacyclododec-3-en-8-ylamino)-1-oxo-3-phenylpropan-2-yl)ureido)-3-methylbutanoate]",5877 M⁻¹ s⁻¹
6,"COC(=O)[C@@H](NC(=O)N[C@@H](Cc1cccc(C)c1)C(=O)N[C@H]1CCCCNC(=O)/C=C/[C@H](Cc2ccccc2F)NC1=O)C(C)C [Compound 20, (S)-methyl 2-(3-((S)-1-((5S,8S,E)-5-(2-fluorobenzyl)-2,7-dioxo-1,6-diazacyclododec-3-en-8-ylamino)-1-oxo-3-m-tolylpropan-2-yl)ureido)-3-methylbutanoate]",3797 M⁻¹ s⁻¹
7,"COC(=O)[C@@H](NC(=O)N[C@@H](Cc1ccc(C)cc1)C(=O)N[C@H]1CCCCNC(=O)/C=C/[C@H](Cc2ccccc2F)NC1=O)C(C)C [Compound 21, (S)-methyl 2-(3-((S)-1-((5S,8S,E)-5-(2-fluorobenzyl)-2,7-dioxo-1,6-diazacyclododec-3-en-8-ylamino)-1-oxo-3-p-tolylpropan-2-yl)ureido)-3-methylbutanoate]",7332 M⁻¹ s⁻¹
8,"COC(=O)[C@@H](NC(=O)N[C@@H](Cc1cccc(F)c1)C(=O)N[C@H]1CCCCNC(=O)/C=C/[C@H](Cc2ccccc2F)NC1=O)C(C)C [Compound 23, (S)-methyl 2-(3-((S)-1-((5S,8S,E)-5-(2-fluorobenzyl)-2,7-dioxo-1,6-diazacyclododec-3-en-8-ylamino)-3-(3-fluorophenyl)-1-oxopropan-2-yl)ureido)-3-methylbutanoate]",2199 M⁻¹ s⁻¹
9,"COC(=O)[C@@H](NC(=O)N[C@@H](Cc1ccccc1Cl)C(=O)N[C@H]1CCCCNC(=O)/C=C/[C@H](Cc2cccc(F)c2)NC1=O)C(C)C [Compound 24, (S)-methyl 2-(3-((S)-3-(2-chlorophenyl)-1-((5S,8S,E)-5-(3-fluorobenzyl)-2,7-dioxo-1,6-diazacyclododec-3-en-8-ylamino)-1-oxopropan-2-yl)ureido)-3-methylbutanoate]",2749 M⁻¹ s⁻¹
10,"COC(=O)[C@@H](NC(=O)N[C@@H](Cc1cccc(Cl)c1)C(=O)N[C@H]1CCCCNC(=O)/C=C/[C@H](Cc2cccc(F)c2)NC1=O)C(C)C [Compound 25, (S)-methyl 2-(3-((S)-3-(3-chlorophenyl)-1-((5S,8S,E)-5-(3-fluorobenzyl)-2,7-dioxo-1,6-diazacyclododec-3-en-8-ylamino)-1-oxopropan-2-yl)ureido)-3-methylbutanoate]",8532 M⁻¹ s⁻¹
11,"COC(=O)[C@@H](NC(=O)N[C@@H](Cc1ccc(Cl)cc1)C(=O)N[C@H]1CCCCNC(=O)/C=C/[C@H](Cc2cccc(F)c2)NC1=O)C(C)C [Compound 26, (S)-methyl 2-(3-((S)-3-(4-chlorophenyl)-1-((5S,8S,E)-5-(3-fluorobenzyl)-2,7-dioxo-1,6-diazacyclododec-3-en-8-ylamino)-1-oxopropan-2-yl)ureido)-3-methylbutanoate]",12605 M⁻¹ s⁻¹

# Other lines, results leading:
row,hs20S kin/Ki,SMILES
1,14336 M⁻¹ s⁻¹,COC(=O)[C@@H](NC(=O)N[C@@H](Cc1ccccc1)C(=O)N[C@H]1CCCCNC(=O)/C=C/[C@H](Cc2cccc(F)c2)NC1=O)C(C)C [Compound 27]
2,12866 M⁻¹ s⁻¹,"COC(=O)[C@@H](NC(=O)N[C@@H](Cc1cccc(C)c1)C(=O)N[C@H]1CCCCNC(=O)/C=C/[C@H](Cc2cccc(F)c2)NC1=O)C(C)C [Compound 28, (S)-methyl 2-(3-((S)-1-((5S,8S,E)-S-(3 fluorobenzyl)-2,7-dioxo-1,6-diazacyclododec-3-en-8-ylamino)-1-oxo-3-m-tolylpropan-2-yl)ureido)-3-methylbutanoate]"
3,11670 M⁻¹ s⁻¹,"COC(=O)[C@@H](NC(=O)N[C@@H](Cc1ccc(C)cc1)C(=O)N[C@H]1CCCCNC(=O)/C=C/[C@H](Cc2cccc(F)c2)NC1=O)C(C)C [Compound 29, (S)-methyl 2-(3-((S)-1-((5S,8S,E)-S-(3-fluorobenzyl)-2,7-dioxo-1,6-diazacyclododec-3-en-8-ylamino)-1-oxo-3-p-tolylpropan-2 yl)ureido)-3-methylbutanoate]"
4,12202 M⁻¹ s⁻¹,"COC(=O)[C@@H](NC(=O)N[C@@H](Cc1ccccc1F)C(=O)N[C@H]1CCCCNC(=O)/C=C/[C@H](Cc2cccc(F)c2)NC1=O)C(C)C [Compound 30, (S)-methyl 2-(3-((S)-1-((5S,8S,E)-S-(3-fluorobenzyl)-2,7-dioxo-1,6-diazacyclododec-3-en-8-ylamino)-3-(2-fluorophenyl)-1-oxopropan-2 yl)ureido)-3-methylbutanoate]"
5,5016 M⁻¹ s⁻¹,"COC(=O)[C@@H](NC(=O)N[C@@H](Cc1cccc(F)c1)C(=O)N[C@H]1CCCCNC(=O)/C=C/[C@H](Cc2cccc(F)c2)NC1=O)C(C)C [Compound 31, (S)-methyl 2-(3-((S)-1-((5S,8S,E)-5-(3-fluorobenzyl)-2,7-dioxo-1,6-diazacyclododec-3-en-8-ylamino)-3-(3-fluorophenyl)-1-oxopropan-2-yl)ureido)-3-methylbutanoate]"
6,4531 M⁻¹ s⁻¹,"COC(=O)[C@@H](NC(=O)N[C@@H](Cc1cccc(C(F)(F)F)c1)C(=O)N[C@H]1CCCCNC(=O)/C=C/[C@H](Cc2cccc(F)c2)NC1=O)C(C)C [Compound 32, (S)-methyl 2-(3-((S)-1-((5S,8S,E)-5-(3-fluorobenzyl)-2,7-dioxo-1,6-diazacyclododec-3-en-8-ylamino)-1-oxo-3-(3-(trifluoromethyl)phenyl)propan-2-yl)ureido)-3-methylbutanoate]"
